For data set [1], the target named is T1, mouse Oatp1a4 (Mus musculus, UniProt Q9EP96).
T1 sequence (Q9EP96 1-670): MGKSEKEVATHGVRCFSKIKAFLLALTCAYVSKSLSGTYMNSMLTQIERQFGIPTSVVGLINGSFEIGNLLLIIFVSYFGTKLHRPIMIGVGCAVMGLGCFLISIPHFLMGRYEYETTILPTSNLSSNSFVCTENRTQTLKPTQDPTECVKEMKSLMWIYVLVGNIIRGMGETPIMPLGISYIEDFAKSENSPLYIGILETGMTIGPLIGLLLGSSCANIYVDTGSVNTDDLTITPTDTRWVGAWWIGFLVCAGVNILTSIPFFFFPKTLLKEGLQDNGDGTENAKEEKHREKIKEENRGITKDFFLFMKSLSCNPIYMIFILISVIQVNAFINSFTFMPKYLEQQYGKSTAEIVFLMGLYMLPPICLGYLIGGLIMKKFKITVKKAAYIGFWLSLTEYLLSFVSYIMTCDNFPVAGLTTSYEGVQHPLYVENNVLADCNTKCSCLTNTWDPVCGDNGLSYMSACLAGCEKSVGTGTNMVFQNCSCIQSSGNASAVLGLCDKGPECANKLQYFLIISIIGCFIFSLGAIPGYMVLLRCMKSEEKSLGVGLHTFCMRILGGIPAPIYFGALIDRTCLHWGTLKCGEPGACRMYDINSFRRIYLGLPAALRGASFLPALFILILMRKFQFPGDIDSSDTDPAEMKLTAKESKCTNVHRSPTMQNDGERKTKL
The settings on record: inhibitor at 100 μM.
Procedure: (§1) 293FT cells were purchased from Thermo Fisher Scientific, Inc.. The cells were grown in Dulbecco's modified Eagle medium (supplemented with 4.5 g/L glucose and 2 mM L‐glutamine) at 37°C, 5% CO2, and 95% humidity. The cells were passaged 3 times per week by harvesting cells using trypsin and plating at a density of 1.0 × 10^4 cells/cm^2 in a 10 cm cell culture plate for maintenance culture. The 293FT cells were detached using trypsin and re‐seeded at a density of 2.5 × 10^4 cells/cm^2 in BioCoat™ Collagen I 6‐well plates (Corning Inc.) for transfection and then treated with 1.2 μg of plasmid vector and 3.2 μl of Lipofectamine™ 2000 Transfection Reagent (Thermo Fisher Scientific, Inc.) according to the manufacturer's instructions. After a 3‐h treatment, the transfection medium was replaced with a fresh cell culture medium and incubated at 37°C with 95% humidity and 5% CO2 until ready for the assay.
(§2) Transport experiments were conducted approximately 24 h post‐transfection. The experiments were initiated by aspirating culture medium and addition of pre‐warmed radiolabeled substrate solution (final 1.0% of acetonitrile or 0.9% of ethanol in phosphate‐buffered saline (PBS[−])) to each well. After a 10‐min incubation, cells were washed twice with 1 ml of ice‐cold PBS(−) and lysed with 700 μl of 1.0 M NaOH for 3 h or more at room temperature. The lysate was transferred to a 1.5‐ml tube, and neutralized with 350 μl of 2.0 M HCl and 350 μl of 2.0% sodium dodecyl sulfate (SDS) solution. From the lysate, 1.0 ml was transferred to a vial containing 10 ml of Emulsifier Scintillator Plus to measure the radioactivity in the LSC. The protein concentration of the cell lysate was also measured using a Pierce™ BCA Protein Assay Kit (Thermo Fisher Scientific, Inc.), which was used to normalize, according to the cell number, the radioactivity in the cell lysate extract. The protein assay was performed in duplicate. Each sample type was assayed in triplicate wells, and each run was performed twice. […] Each sample type was assayed in triplicate wells.

For data set [2], the target named is T1, mouse Oatp1a4. In words: in vitro. The note with it: 293FT cells transiently transfected with mouse Oatp1a4, probe radiolabeled S‐3100‐CA.
Procedure: as §1, §2
Data set [3] in a line: Metabolite analysis in plasma, liver, and kidney (TLC). The class given is in vivo, Crl:CD1(ICR) mice. The settings on record: for concentration at 2 h / Kp at 2 h: Crl:CD1(ICR), mouse, oral; for Kp at 2 h: liver and plasma, read-out: Liver/plasma ratio of S‐3100‐CA; for Kp at 2 h / S‐3100‐CA concentration in liver: 2 h. The source says:
Precoated silica gel 60 F254 chromatoplate (20 × 20 cm, 0.25‐ or 0.5‐mm layer thickness, Merck KGaA) was used for two‐dimensional thin layer chromatography (2D‐TLC) analysis. The solvent systems were ethyl formate/formic acid (95/5, v/v) for the first dimension, and ethyl acetate/acetic acid (95/5, v/v) for the second dimension. The radioactivity on the TLC plates was detected by autoradiography using an imaging plate processed with a fluoro‐image analyzer (FLA‐9500, GE Healthcare). The identity of the metabolites was confirmed by co‐chromatography in comparison with authentic metabolite standards.
Three mice per sex at 8 weeks old were given a single oral dose of [^14C]epyrifenacil at 1 mg/kg with or without co‐administration of OATP inhibitors. […] At 2 h after administration of [^14C]epyifenacil, the animals were euthanized by whole blood collection from the abdominal aorta under anesthesia with isoflurane. The sampling time point was selected as the time around T max based on the result of the blood ^14C‐concentration study. Then, the liver and kidney were dissected out, and the amount of ^14C was measured. Aliquots of heparinized blood samples were separated into blood cells and plasma by centrifugation at 2000g for 10 min at 4°C. The total weight of the liver and kidney was determined for each animal. Two aliquots of plasma and tissue samples (approximately 0.05–0.1 g) were weighed in a glass vial, and the radioactivity was measured.
Approximately 0.3 g of liver, kidney, and plasma samples were pooled, respectively, for each dose and gender to obtain samples for analysis. Pooled liver, kidney, and plasma (ca. 1 g each) samples were homogenized with an approximately 3‐fold volume (v/w) of methanol using the mixer mill MM400 (5 min, 25 cycles/second, Retsch GmbH) and centrifuged (10 000g, 5 min, 4°C) to separate the supernatants from the residues. The extraction was repeated one additional time. The supernatants obtained were pooled and labeled liver, kidney, and plasma extracts. These samples were concentrated and then subjected to TLC analysis. For calculation of extraction efficacy, the post‐extraction solids (PESs) from the tissues and plasma extracts were sampled in low potassium glass vials. PESs were solubilized with 3 M potassium hydroxide solution (approximately 1 ml), then bleached with 30% hydrogen peroxide solution, and finally mixed with 10 ml of Hionic‐Fluor to measure the radioactivity.

Read-outs that look alike come from different tables or passages of the source.

With `CO[C@H]1/C=C/O[C@@]2(C)Oc3c(C)c(O)c4c(O)c(c(/C=N/N5CCN(C)CC5)c(O)c4c3C2=O)NC(=O)/C(C)=C\C=C\[C@H](C)[C@H](O)[C@@H](C)[C@@H](O)[C@@H](C)[C@H](OC(C)=O)[C@@H]1C` [RIF, Rifampicin], the “Uptake of S‐3100‐CA, % of that by vehicle‐treated cells” value on mouse Oatp1a4 [1] is “less than 40%”. Also, the inhibition at 10 min, 10 µM against mouse Oatp1a4 [2] is over 50%.
`Cn1c(C(F)(F)F)cc(=O)n(-c2cc(Oc3cccnc3OCC(=O)O)c(Cl)cc2F)c1=O` [S‐3100‐CA]: the concentration at 2 h in data set [3] (kidney, with rifampicin (OATP inhibitor) 200 mg/kg p.o., Female, 2 h after [^14C]Epyrifenacil 1 mg/kg p.o. + Rifampicin 200 mg/kg p.o., read-out: Metabolite concentration, Kidney) was determined as 50 ng/g; in data set [3] (kidney, with rifampicin (OATP inhibitor) 200 mg/kg p.o., Male, 2 h after [^14C]Epyrifenacil 1 mg/kg p.o. + Rifampicin 200 mg/kg p.o., read-out: Metabolite concentration, Kidney), 73 ng/g; in data set [3] (kidney, Female, 2 h after [^14C]Epyrifenacil 1 mg/kg p.o., read-out: Metabolite concentration, Kidney) it was 96 ng/g; in data set [3] (kidney, Male, 2 h after [^14C]Epyrifenacil 1 mg/kg p.o., read-out: Metabolite concentration, Kidney), 55 ng/g; in data set [3] (liver, with rifampicin (OATP inhibitor) 200 mg/kg p.o., Female, 2 h after [^14C]Epyrifenacil 1 mg/kg p.o. + Rifampicin 200 mg/kg p.o., read-out: Metabolite concentration, Liver) it was 660 ng/g; in data set [3] (liver, with rifampicin (OATP inhibitor) 200 mg/kg p.o., Male, 2 h after [^14C]Epyrifenacil 1 mg/kg p.o. + Rifampicin 200 mg/kg p.o., read-out: Metabolite concentration, Liver) it was 1370 ng/g. Further, the concentration at 2 h was found to be 3520 ng/g in data set [3] (liver, Female, 2 h after [^14C]Epyrifenacil 1 mg/kg p.o., read-out: Metabolite concentration, Liver); 4740 ng/g in data set [3] (liver, Male, 2 h after [^14C]Epyrifenacil 1 mg/kg p.o., read-out: Metabolite concentration, Liver); 143 ng/g in data set [3] (plasma, with rifampicin (OATP inhibitor) 200 mg/kg p.o., Female, 2 h after [^14C]Epyrifenacil 1 mg/kg p.o. + Rifampicin 200 mg/kg p.o., read-out: Metabolite concentration, Plasma); 76 ng/g in data set [3] (plasma, with rifampicin (OATP inhibitor) 200 mg/kg p.o., Male, 2 h after [^14C]Epyrifenacil 1 mg/kg p.o. + Rifampicin 200 mg/kg p.o., read-out: Metabolite concentration, Plasma); 68 ng/g in data set [3] (plasma, Female, 2 h after [^14C]Epyrifenacil 1 mg/kg p.o., read-out: Metabolite concentration, Plasma); 54 ng/g in data set [3] (plasma, Male, 2 h after [^14C]Epyrifenacil 1 mg/kg p.o., pooled samples, read-out: Metabolite concentration, Plasma). For the same compound, the “Share of ^14C in liver” value in data set [3] (all dose groups) is listed as “over 70%”. Also, the Kp at 2 h in data set [3] (female, 1 mg/kg, females, epyrifenacil 1 mg/kg p.o. without inhibitors) is 52; in data set [3] (female, females, DGX co‐administrated (oral or intraperitoneal)), 50 to 56; in data set [3] (female, females, RIF co‐administrated), 5; in data set [3] (male, 1 mg/kg, males, epyrifenacil 1 mg/kg p.o. without inhibitors), 88; in data set [3] (male, males, DGX co‐administrated (oral or intraperitoneal)), 89 to 139; in data set [3] (male, males, RIF co‐administrated), 18. Further, the “S‐3100‐CA concentration in liver” value was 0.660 ppm in data set [3] (females, RIF co‐administrated) and 1.371 ppm in data set [3] (males, RIF co‐administrated).

These data come from article PMC8496750, “Identification of the organic anion transporting polypeptides responsible for the hepatic uptake of the major metabolite of epyrifenacil, S‐3100‐CA, in mice” (Pharmacology Research & Perspectives, 2021).
